Read-outs that look alike come from different tables or passages of the source.
What was measured:
[1] = biological target: T1, Rat recombinant PDE10A (rPDE10A2) (Rattus norvegicus, UniProt Q9QYJ6); assay: In vitro assay PDE10A (SPA, 3H-cAMP); type: biochemical
T1 construct: inferred from the Ni metal chelate purification; made in house; host or cells: Sf9 insect cells (baculovirus)
T1 sequence (Q9QYJ6 1-794): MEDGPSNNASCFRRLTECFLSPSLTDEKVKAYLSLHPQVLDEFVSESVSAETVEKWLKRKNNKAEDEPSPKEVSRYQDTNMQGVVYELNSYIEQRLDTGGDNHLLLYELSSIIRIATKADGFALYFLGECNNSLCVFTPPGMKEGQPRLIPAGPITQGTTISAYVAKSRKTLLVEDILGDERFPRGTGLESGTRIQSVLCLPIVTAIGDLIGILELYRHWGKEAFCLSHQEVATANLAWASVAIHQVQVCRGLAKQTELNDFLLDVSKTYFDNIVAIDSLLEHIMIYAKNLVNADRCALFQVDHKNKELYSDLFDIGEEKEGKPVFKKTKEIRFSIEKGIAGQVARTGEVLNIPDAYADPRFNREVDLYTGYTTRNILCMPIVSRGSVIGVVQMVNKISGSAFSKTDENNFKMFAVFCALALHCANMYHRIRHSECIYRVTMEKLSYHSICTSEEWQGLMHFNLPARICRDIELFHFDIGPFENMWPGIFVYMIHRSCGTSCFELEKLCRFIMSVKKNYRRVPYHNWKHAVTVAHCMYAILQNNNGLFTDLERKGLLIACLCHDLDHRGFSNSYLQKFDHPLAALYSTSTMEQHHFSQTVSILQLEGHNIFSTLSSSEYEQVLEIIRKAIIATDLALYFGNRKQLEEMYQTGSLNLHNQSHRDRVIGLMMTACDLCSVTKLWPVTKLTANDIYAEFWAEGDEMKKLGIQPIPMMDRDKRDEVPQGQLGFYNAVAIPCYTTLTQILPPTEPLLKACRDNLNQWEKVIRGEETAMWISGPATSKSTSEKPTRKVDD
In short: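 Rat PDE10A2 expressed in Sf9 cells and Ni-purified; incubated with 60 nM cAMP plus 0.008 μCi 3H-cAMP in 50 mM Tris pH 7.8, 8.3 mM MgCl2, 1.7 mM EGTA for 60 min at room temperature. Product quantified by scintillation proximity counting; final DMSO 1%.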

PDE4D3 = PDE4D3 (Homo sapiens, UniProt Q08499); assay: In vitro PDE selectivity assay (SPA), PDE4D3; type: biochemical; settings: hPDE4D3; read-out: PDE 4D3 (expressed as pIC50) (converted)
Protocol: (§1) Rat recombinant PDE10A (rPDE10A2) was expressed in Sf9 cells using a recombinant rPDE10A baculovirus construct. Cells were harvested after 48 h of infection and the rPDE10A protein was purified by metal chelate chromatography on Ni-sepharose 6FF. Tested compounds were dissolved and diluted in 100% DMSO to a concentration 100 fold of the final concentration in the assay. Compound dilutions (0.4 μl) were added in 384 well plates to 20 μl of incubation buffer (50 mM Tris pH 7.8, 8.3 mM MgCl2, 1.7 mM EGTA). 10 μl of rPDE10A enzyme in incubation buffer was added and the reaction was started by addition of 10 μl substrate to a final concentration of 60 nM cAMP and 0.008 μCi ^3H-cAMP. The reaction was incubated for 60 minutes at room temperature. After incubation, the reaction was stopped with 20 μl of stop solution consisting of 17.8 mg/ml PDE SPA (scintillation proximity assay) beads. After sedimentation of the beads during 30 minutes the radioactivity was measured in a Perkin Elmer Topcount scintillation counter and results were expressed as cpm. For blanc values the enzyme was omitted from the reaction and replaced by incubation buffer. Control values were obtained by addition of a final concentration of 1% DMSO instead of compound. The same assay principle is applied for the measurement of the affinity of the compound for other members of the PDE family with appropriate modifications in incubation buffer, substrate concentration, incubation time and stop solution. An overview of the different protocols is presented in table A. A best fit curve is fitted by a minimum sum of squares method to the plot of % of control value substracted with blanc value versus compound concentration and the half maximal inhibitory concentration (IC50) value is derived from this curve.
(§2) The compounds of the invention are generally selective for PDE10 compared to other PDEs and there are a few that also have affinity for PDE1B1, 4D3 and 5A3.

PDE5A3 = PDE5A3 (Homo sapiens, UniProt O76074); assay: In vitro PDE selectivity assay (SPA), PDE5A3; type: biochemical; settings: hPDE5A3; read-out: PDE 5A3 (expressed as pIC50) (converted)
Protocol: as §1, §2

[2] = biological target: other members of the PDE family (Homo sapiens, UniProt O00408); assay: In vitro PDE selectivity assay (SPA), other members of the PDE family (protocols in Table A); type: biochemical; settings: hPDE2A; read-out: PDE 2A (expressed as pIC50) (converted)
In short: (§3)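 Inhibition of each PDE isoform was measured by scintillation proximity assay with ³H-cyclic nucleotide substrate, using incubation buffer, substrate concentration, incubation time and stop solution adapted per isoform. Compounds were tested in dose-response against 1% DMSO controls and enzyme-free blanks. IC50 came from a least-squares fit of blank-subtracted % of control versus concentration.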

[3] = biological target: other members of the PDE family (Homo sapiens, UniProt O76083); assay: as above; type: biochemical; settings: hPDE9A; read-out: PDE 9A (expressed as pIC50) (converted)
In short: as §3

[4] = biological target: other members of the PDE family (Homo sapiens, UniProt Q13946); assay: as above; type: biochemical; settings: hPDE7A1; read-out: PDE 7A (expressed as pIC50) (converted)
In short: as §3

[5] = biological target: other members of the PDE family (Homo sapiens, UniProt Q14432); assay: as above; type: biochemical; settings: hPDE3A; read-out: PDE 3A (expressed as pIC50) (converted)
In short: as §3

[6] = biological target: other members of the PDE family (Homo sapiens, UniProt Q9HCR9); assay: as above; type: biochemical; settings: hPDE11A4; read-out: PDE 11A4 (expressed as pIC50) (converted)
In short: as §3

[7] = system: apomorphine-induced stereotypy in rats; assay: Apomorphine-induced stereotypy in rats (APO); type: in vivo; settings: Rattus norvegicus; dose at which 50% of the tested animals show the effect; ≧: active in 30% of the animals at the indicated dose; ≦: active in 60%
Protocol: Apomorphine (1.0 mg/kg, i.v.)-induced stereotypy (compulsive sniffing, licking, chewing) was scored every 5 min over the first hour after injection of apomorphine, following a 1 hour interval pre-treatment with the test compound. The score system was: (3) pronounced, (2) moderate, (1) slight, and (0) absent.

PDE10 = biological target: T2, PDE10 (Rattus norvegicus, UniProt Q9QYJ6); assay: PDE10 occupancy ([3H]-MP-10, striatum); type: in vivo; settings: for ED50 / receptor occupancy at 10 mg/kg: rat, sc; for ED50: dose response, subcutaneous administration, read-out: PDE10 in vivo occupancy ED50 sc; for receptor occupancy at 10 mg/kg: single dose 10 mg/kg, subcutaneous, read-out: SD sc % occupancy at 10 mg/kg
T2 construct: from tissue; host or cells: rat brain sections, striatum (in vivo dosing, ex vivo autoradiography)
T2 sequence (Q9QYJ6 1-794): T1 sequence (Q9QYJ6 1-794)
In short: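 Male Wistar rats (200 g) dosed s.c. or p.o.; occupancy measured 1 h post-dose. [^3H]-MP-10 (10 μCi/animal) given i.v. 30 min before sacrifice.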

[8] = Table 4 in vitro selectivity, read-out: PDE 10A2 (expressed as pIC50) (converted)
[9] = pIC50 corresponds to the −log IC50 expressed in mol/L, read-out: PDE10A2 pIC50 (converted)

Chain of other members of the PDE family (Homo sapiens, UniProt O00408) (O00408 whole entry, canonical isoform): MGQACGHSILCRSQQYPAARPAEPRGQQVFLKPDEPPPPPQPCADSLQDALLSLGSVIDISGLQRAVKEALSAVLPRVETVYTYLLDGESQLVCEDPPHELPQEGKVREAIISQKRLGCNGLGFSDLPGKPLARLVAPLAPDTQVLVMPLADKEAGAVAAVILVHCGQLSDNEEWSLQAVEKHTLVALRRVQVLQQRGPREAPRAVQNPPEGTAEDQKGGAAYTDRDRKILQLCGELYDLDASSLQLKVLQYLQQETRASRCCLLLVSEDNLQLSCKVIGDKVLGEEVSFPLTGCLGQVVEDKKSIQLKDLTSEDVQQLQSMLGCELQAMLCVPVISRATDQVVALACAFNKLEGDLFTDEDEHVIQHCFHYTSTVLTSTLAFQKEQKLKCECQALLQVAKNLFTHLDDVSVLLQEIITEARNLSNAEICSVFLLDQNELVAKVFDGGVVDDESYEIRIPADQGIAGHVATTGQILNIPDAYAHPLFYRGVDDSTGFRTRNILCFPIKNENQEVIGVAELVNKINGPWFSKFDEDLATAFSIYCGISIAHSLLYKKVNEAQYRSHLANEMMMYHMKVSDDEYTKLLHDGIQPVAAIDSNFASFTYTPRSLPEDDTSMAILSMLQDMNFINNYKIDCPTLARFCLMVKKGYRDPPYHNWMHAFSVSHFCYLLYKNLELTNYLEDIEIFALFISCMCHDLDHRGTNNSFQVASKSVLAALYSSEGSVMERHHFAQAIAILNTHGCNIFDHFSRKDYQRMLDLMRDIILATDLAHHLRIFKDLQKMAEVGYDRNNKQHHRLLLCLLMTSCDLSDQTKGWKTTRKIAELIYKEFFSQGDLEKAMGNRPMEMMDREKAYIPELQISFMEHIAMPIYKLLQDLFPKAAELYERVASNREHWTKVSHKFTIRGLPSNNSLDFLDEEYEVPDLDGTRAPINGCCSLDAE
Chain of other members of the PDE family (Homo sapiens, UniProt Q14432) (Q14432 whole entry): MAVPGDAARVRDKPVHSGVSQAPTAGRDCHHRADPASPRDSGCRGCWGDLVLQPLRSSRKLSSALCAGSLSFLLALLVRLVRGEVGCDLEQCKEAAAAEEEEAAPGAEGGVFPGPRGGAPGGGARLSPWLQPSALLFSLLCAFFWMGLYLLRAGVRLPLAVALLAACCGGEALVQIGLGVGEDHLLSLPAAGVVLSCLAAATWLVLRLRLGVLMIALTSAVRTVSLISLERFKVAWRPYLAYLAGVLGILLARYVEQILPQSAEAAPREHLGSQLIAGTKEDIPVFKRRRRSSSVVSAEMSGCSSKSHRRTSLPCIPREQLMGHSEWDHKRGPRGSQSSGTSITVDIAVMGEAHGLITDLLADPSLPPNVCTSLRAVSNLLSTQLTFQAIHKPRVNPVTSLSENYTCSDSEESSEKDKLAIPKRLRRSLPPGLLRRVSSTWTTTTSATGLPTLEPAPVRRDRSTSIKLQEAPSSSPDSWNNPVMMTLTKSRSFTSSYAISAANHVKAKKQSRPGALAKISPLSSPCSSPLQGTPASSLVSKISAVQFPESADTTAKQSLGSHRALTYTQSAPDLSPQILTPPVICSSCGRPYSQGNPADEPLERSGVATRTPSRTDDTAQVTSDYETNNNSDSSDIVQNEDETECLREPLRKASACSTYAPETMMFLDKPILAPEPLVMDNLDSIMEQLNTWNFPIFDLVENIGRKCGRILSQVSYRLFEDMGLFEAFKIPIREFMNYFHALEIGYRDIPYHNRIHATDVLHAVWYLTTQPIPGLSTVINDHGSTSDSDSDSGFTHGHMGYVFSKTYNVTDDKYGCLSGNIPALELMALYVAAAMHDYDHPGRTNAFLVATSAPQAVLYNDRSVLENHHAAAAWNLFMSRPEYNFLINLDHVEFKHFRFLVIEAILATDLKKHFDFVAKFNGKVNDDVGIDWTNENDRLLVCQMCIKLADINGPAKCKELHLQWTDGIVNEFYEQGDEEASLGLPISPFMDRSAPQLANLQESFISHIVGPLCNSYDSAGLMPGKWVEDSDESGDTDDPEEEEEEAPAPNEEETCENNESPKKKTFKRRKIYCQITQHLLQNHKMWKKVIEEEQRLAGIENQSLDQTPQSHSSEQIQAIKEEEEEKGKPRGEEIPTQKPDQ
Chain of other members of the PDE family (Homo sapiens, UniProt Q13946) (Q13946 whole entry): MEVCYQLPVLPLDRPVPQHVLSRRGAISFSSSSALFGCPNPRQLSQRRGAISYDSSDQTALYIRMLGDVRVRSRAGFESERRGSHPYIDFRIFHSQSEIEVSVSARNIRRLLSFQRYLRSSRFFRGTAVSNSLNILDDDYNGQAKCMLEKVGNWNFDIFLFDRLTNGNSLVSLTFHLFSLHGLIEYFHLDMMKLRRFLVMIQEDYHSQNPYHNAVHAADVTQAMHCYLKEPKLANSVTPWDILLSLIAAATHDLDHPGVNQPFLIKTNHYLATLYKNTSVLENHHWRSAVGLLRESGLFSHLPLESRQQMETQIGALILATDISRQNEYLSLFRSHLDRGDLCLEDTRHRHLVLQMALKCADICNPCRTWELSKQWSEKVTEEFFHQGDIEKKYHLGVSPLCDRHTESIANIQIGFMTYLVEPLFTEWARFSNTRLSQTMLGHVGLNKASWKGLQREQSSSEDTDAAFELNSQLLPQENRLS
Chain of other members of the PDE family (Homo sapiens, UniProt Q9HCR9) (Q9HCR9 whole entry): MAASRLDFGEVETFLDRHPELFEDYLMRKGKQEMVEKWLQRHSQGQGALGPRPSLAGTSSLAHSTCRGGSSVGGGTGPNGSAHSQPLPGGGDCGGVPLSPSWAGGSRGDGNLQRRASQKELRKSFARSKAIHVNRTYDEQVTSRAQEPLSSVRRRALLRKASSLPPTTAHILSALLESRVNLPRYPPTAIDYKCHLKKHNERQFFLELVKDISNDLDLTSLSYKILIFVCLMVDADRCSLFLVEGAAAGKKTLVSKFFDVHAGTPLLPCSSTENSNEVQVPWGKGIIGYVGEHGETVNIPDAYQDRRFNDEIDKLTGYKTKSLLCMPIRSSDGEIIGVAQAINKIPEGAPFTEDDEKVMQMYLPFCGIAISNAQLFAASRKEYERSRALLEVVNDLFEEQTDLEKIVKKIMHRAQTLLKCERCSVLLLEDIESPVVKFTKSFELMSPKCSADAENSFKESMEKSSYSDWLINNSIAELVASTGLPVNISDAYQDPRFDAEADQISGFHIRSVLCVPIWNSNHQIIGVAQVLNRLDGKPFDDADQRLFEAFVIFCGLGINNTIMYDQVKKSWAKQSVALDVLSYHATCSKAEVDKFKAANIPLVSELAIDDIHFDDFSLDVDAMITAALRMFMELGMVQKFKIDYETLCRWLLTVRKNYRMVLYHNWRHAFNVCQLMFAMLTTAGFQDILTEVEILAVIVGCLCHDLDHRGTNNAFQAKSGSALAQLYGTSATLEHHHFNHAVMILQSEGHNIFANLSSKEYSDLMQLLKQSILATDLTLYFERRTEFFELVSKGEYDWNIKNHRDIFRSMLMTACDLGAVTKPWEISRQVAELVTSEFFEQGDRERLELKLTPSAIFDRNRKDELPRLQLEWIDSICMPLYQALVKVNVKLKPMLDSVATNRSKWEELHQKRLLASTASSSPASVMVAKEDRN
Chain of PDE4D3 (Q08499 1-673 isoform Q08499-2): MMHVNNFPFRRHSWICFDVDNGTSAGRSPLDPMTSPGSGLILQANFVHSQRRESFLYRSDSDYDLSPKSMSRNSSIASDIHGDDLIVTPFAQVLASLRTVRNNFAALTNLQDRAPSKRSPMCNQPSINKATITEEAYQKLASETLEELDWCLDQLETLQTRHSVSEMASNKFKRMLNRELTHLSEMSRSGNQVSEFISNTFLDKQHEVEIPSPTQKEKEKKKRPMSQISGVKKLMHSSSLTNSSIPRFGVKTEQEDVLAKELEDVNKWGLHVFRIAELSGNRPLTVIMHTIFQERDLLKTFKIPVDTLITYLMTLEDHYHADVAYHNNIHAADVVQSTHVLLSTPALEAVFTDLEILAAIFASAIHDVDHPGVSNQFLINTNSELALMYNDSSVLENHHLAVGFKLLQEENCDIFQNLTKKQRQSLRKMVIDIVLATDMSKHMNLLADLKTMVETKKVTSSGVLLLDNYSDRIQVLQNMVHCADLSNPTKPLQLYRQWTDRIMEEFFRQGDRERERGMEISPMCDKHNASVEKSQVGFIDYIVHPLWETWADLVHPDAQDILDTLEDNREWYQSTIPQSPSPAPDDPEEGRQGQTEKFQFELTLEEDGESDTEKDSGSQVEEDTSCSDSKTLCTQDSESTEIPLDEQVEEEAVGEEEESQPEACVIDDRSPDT
Chain of other members of the PDE family (Homo sapiens, UniProt O76083) (O76083 whole entry): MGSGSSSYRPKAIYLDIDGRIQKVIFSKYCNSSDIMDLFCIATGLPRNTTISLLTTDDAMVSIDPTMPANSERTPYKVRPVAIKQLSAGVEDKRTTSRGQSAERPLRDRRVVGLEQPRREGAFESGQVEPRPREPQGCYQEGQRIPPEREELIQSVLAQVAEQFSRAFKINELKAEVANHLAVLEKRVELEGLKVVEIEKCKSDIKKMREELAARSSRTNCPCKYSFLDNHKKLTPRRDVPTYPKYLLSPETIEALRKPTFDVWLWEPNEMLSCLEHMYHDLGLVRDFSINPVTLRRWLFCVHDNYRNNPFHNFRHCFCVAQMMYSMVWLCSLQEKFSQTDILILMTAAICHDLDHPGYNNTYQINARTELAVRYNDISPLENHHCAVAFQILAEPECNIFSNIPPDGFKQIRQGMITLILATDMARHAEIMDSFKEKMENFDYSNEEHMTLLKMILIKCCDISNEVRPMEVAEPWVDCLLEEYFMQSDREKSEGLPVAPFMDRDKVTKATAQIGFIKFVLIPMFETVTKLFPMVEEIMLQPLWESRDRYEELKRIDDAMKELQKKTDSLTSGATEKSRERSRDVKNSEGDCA

| IC50 [1, 8] [µM] | IC50 [1, 9] [µM] | IC50 (PDE4D3) [µM] | IC50 (PDE5A3) [µM] | IC50 [2] [µM] | IC50 [3] [µM] | IC50 [4] [µM] | IC50 [5] [µM] | IC50 [6] [µM] | ED50 (PDE10) [mg/kg] | receptor occupancy at 10 mg/kg (PDE10) [%] | % occupancy at the highest dose tested (PDE10; dose response sc, data between brackets) [%] | Compound | ED50 [7] [mg/kg] |
| --- | --- | --- | --- | --- | --- | --- | --- | --- | --- | --- | --- | --- | --- |
| 0.0501 | 0.0501 | 30.9 | 6.03 | 53.7 | > 100 | 45.7 | 11 | 39.8 | 2.2 | 67 |  | COC(C)(C)Cn1cc(-c2c(C)nc3c(N4CCOCC4)ccnn23)cn1 [compound 37, 3-[1-(2-methoxy-2-methylpropyl)-1H-pyrazol-4-yl]-2-methyl-8-(4-morpholinyl)-imidazo[1,2-b]pyridazine] | 1.5 |
| 0.0224 | 0.0224 | 7.41 | 1.95 | 8.71 | > 10 | 5.37 | 6.92 | 5.37 | 3 |  |  | Cc1nc2c(-c3ccncc3)ccnn2c1-c1cnn(CC(C)C)c1 [compound 124, 2-methyl-3-[1-(2-methylpropyl)-1H-pyrazol-4-yl]-8-(4-pyridinyl)-imidazo[1,2-b]pyridazine] | 1.2 |
| 0.0832 | 0.0832 | 2.09 | 1.26 | 8.51 | > 10 | > 10 | > 10 | 4.47 | > 10 |  | 42 | COCCn1cc(-c2c(C)nc3c(N4CCOCC4)cc(C4CC4)nn23)cn1 [compound 125, 6-cyclopropyl-3-[1-(2-methoxyethyl)-1H-pyrazol-4-yl]-2-methyl-8-(4-morpholinyl)-imidazo[1,2-b]pyridazine] | ≥ 2.5 |
| 0.112 | 0.112 | > 10 | 4.68 | > 10 | > 10 | > 10 | > 10 | > 10 |  | 4 |  | CCc1nc2c(N3CCOCC3)ccnn2c1-c1cnn(CCOC)c1 [compound 127, 2-ethyl-3-[1-(2-methoxyethyl)-1H-pyrazol-4-yl]-8-(4-morpholinyl)-imidazo[1,2-b]pyridazine] | 2 |
| 0.0347 | 0.0347 | > 10 | 8.51 | > 10 | > 10 | > 10 | > 10 | > 10 |  | 59 |  | CO[C@@H](C)Cn1cc(-c2c(C)nc3c(N4CCOCC4)ccnn23)cn1 [compound 131, 3-[1-[(2S)-2-methoxypropyl]-1H-pyrazol-4-yl]-2-methyl-8-(4-morpholinyl)-imidazo[1,2-b]pyridazine] | 3.1 |
| 0.0145 | 0.0145 | 2.82 | 1.15 | 5.5 | > 10 | 5.01 | 5.13 | 1.82 |  | 78 |  | COCCn1cc(-c2c(C3CC3)nc3c(-c4ccncc4)ccnn23)cn1 [compound 142, 2-cyclopropyl-3-[1-(2-methoxyethyl)-1H-pyrazol-4-yl]-8-(4-pyridinyl)-imidazo[1,2-b]pyridazine] | 5 |
| 0.0676 | 0.0676 | 3.8 | 1.17 | > 10 | > 10 | 3.55 | > 10 | 3.8 |  | 22 |  | COCCn1cc(-c2c(C)nc3c(-c4ccncc4)cc(Cl)nn23)cn1 [compound 147, 6-chloro-3-[1-(2-methoxyethyl)-1H-pyrazol-4-yl]-2-methyl-8-(4-pyridinyl)-imidazo[1,2-b]pyridazine] | 5 |
| 0.0251 | 0.0251 | 2.57 | 1.23 | 4.37 | > 10 | 2.88 | 3.16 | 1.91 |  | 66 |  | CC(C)Cn1cc(-c2c(C3CC3)nc3c(-c4ccncc4)ccnn23)cn1 [compound 148, 2-cyclopropyl-3-[1-(2-methylpropyl)-1H-pyrazol-4-yl]-8-(4-pyridinyl)-imidazo[1,2-b]pyridazine] | 5 |

Reference: US20120220581A1, “IMIDAZO[1,2-b]PYRIDAZINE DERIVATIVES AND THEIR USE AS PDE10 INHIBITORS” (Janssen-Cilag, S.A., priority 2009, published 2012)
